Reference: US11168287B2, “Anti-adherent compositions and methods of inhibiting the adherence of microbes to a surface” (Kimberly-Clark Worldwide, Inc., priority 2016, dated 2021)

Key:
[1] = test system: MS2; test: High Throughput Test to Quantify the Attachment of Phage to a Surface, RNA virus MS2; settings: for MS2 Percent Reduct. (%) / MS2 Log R (PFU/mL) compared to growth controls: pegs coated with compound in 5% glycerin and QS water, Con. Wt. %: #1,4,5,6 = 5, #2,3 = 2, #7,8,9 = 100, 1 hour phage contact; for MS2 Log R (PFU/mL) compared to growth controls: positive = inhibits attachment; for Effect against RNA viruses (MS2), in words: positive logarithmic reduction at statistically significant level = anti-adherent
Procedure: (§1) The anti-adherent compositions that inhibit the attachment of RNA and/or DNA viruses to a surface including compounds serving as anti-adherent agents against RNA and DNA viruses were tested against RNA and DNA viruses via the High Throughput Test to Quantify the Attachment of Phage to a Surface, as discussed in detail below. Tables 2 and 3 below show the variety of compounds that were tested as agents in a composition, as well as the results that related to the percent reduction in viruses and the Logarithmic Reduction compared to growth controls. As will be discussed in further detail below in the discussion regarding the High Throughput Test to Quantify the Attachment of Phage to a Surface, a positive logarithmic reduction in viruses equates to anti-adherent properties (e.g., inhibits attachment), and a negative logarithmic reduction in viruses equates to adherent properties (e.g., increases attachment).
The RNA virus that the compositions were tested against for attachment behaviors was MS2. Bacteriophage are commonly utilized as surrogates of mammalian viruses in both medical and virology applications. MS2 phage is commonly utilized as a viral surrogate because of its size, morphology, environmental stability, non-human infectivity, and the ability for use in high throughput assays. Additionally, MS2 is commonly used as a surrogate to study the spread of human Norovirus (See, Tung-Thompson, et al, PLoS One, 2015, 10(8): e0134277, Dawson D J, et al, J App Micro, 2005, 98: 203-209, Jones, et al, J Hosp Infect, 1991, 17:279-85). The use of MS2 phage in hand sanitizer studies makes it an ideal surrogate to study the interaction of personal care products and viral attachment. It is believed that compositions including the adherent agents noted above would act in a substantially similar behavior to other RNA viruses as they did against MS2.
(§2) 1.5 Phage (MS2 and PhiX 174) Enumeration: • 1.5.1 Phage is prepared for use from the stock by diluting 1:1 in BPB. • 1.5.2 Spot Plate Method: • 1.5.2.1 A cell dilution of ˜10^6 CFU/mL of E. coli (E. coli K12 is used for MS2 phage and E. coli C is used for PhiX 174) is prepared from the prepared washed broth culture by diluting in sterile BPB. • 1.5.2.2 An inoculum check is performed on the bacterial dilution in triplicate. • 1.5.2.3 In a 96 well plate, columns 1-12 are filled with 180 μL of the 10^6 CFU/ml E. coli suspension in BPB • 1.5.2.4 20 μL of the samples to be diluted is added in column 1. • 1.5.2.5 10-fold (10×Dilution) in BPB is performed from 10^1-10^12 by moving 20 μL from column 1 to column 2 and mixing. This is repeated, moving down the columns until column 12. • 1.5.2.6 20 μL (or 10 if agar permits) is spot plated on a large labelled OSA plate (spot plate every second column to avoid cross merging of spot plated phages. • 1.5.2.7 Plates are inverted & incubated for 24 h at 37° C. • 1.5.2.8 After 24 h the number of PFU is counted.
(§3) • 1.6.1 Preparation of compounds and coating compounds onto MBEC plate lid • 1.6.2 Using a positive displacement pipette aseptically add 200 μL of compounds to be tested to a sterile 96-well microplate according to the plate layout described below. • 1.6.3 Add 200 μL of each code to the appropriate well for sterility controls. • 1.6.4 Place the MBEC plate lid, peg side down into the 96-well microplate containing the test compound solutions. • 1.6.5 Allow the plate to sit at room temperature (25±3° C.) for 2 hrs. • 1.6.6 Remove the MBEC plate lid and allow the lid to dry at room temperature (25±3° C.) overnight in a laminar flow hood by spacing the MBEC plate lid from the MBEC plate trough with two 10 μL disposable loops. […]

[2] = test system: E. coli ATCC 11229; test: High Throughput Attachment Test Method (bacterial attachment to MBEC pegs), E. coli; format: cell-based, Escherichia coli; settings: pegs coated with compound in 5% glycerin and QS water; Con. Wt. %: #1,4,5,6 = 5; #2,3 = 2; #7,8,9 = 100; 15 min bacterial challenge
Procedure: (§4) Anti-adherent compositions including anti-adherent agents as discussed herein were tested against bacteria using the High Throughput Attachment Test Method. The High Throughput Attachment Test Method is discussed in further detail below. The anti-adherent compositions including the anti-adherent agents were tested against Gram-positive Staphylococcus aureus, and Gram-negative Escherichia coll. The pH of the compositions for this testing between 3 to 10 pH, or about 4 to about 8 pH.
(§5) This test method specifies the operational parameters required to grow and or prevent the formation of bacterial attachment using a high throughput screening assay. The assay device consists of a plastic lid with ninety-six (96) pegs and a corresponding receiver plate with ninety-six (96) individual wells that have a maximum 200 μL working volume. Biofilm is established on the pegs under static batch conditions (i.e., no flow of nutrients into or out of an individual well).
(§6) 6.1.1 E. coli ATCC 11229 and S. aureus ATCC 6538 are the organisms used in this test.
(§7) 6.1.5 Incubate flask at 35±2° C. and 175±10 rpm for 16 to 18 hours (E. coli and S. aureus). Viable bacterial density should be 10^9 CFU/mL and should be checked by serial dilution and plating.
(§8) 6.1.6 Pipette 10 mL from the incubation flask of E. coli and S. aureus into a 50 mL conical tube and spin down at 5 minutes at 4,000×g. Then remove supernatant and Resuspend in 10 mL sterile PBS. Approximate cell density should be 10^7-10^9 CFU/mL. Vortex the sample for approximately 30 seconds to achieve a homogeneous distribution of cells.
(§9) 6.2.1.1.1 Using a positive displacement pipette aseptically add 200 μL of compounds and control to be tested to a sterile 96-well microplate according to the plate layout of Table 4 below.
(§10) 6.2.1.1.3 Place the MBEC plate lid, peg side down into the 96-well microplate containing the test compound solutions.
(§11) 6.2.1.1.4 Allow the plate to sit at room temperature (25±3° C.) for 2 hours.
(§12) 6.2.1.1.5 Remove the MBEC plate lid and allow the lid to dry at room temperature (25±3° C.) overnight in a laminar flow hood. […]

[3] = test system: Phi X 174; test: High Throughput Test to Quantify the Attachment of Phage to a Surface, DNA virus Phi X 174; design: species or system Phi X 174 bacteriophage; settings: for Phi X 174 Percent Reduct. (%) / Phi X 174 Log. R (PFU/mL) compared to growth controls: pegs coated with compound in 5% glycerin and QS water, Con. Wt. %: #1,4,5,6 = 5, #2,3 = 2, #7,8,9 = 100, 1 hour phage contact; for Phi X 174 Log. R (PFU/mL) compared to growth controls: positive = inhibits attachment; for Effect against DNA viruses (Phi X 174), in words: positive logarithmic reduction at statistically significant level = anti-adherent
Procedure: as §1
The DNA virus that the compositions were tested against for attachment behaviors was Phi X 174. Bacteriophage are commonly utilized as surrogates of mammalian viruses in both medical and virology applications. Phi X 174 is commonly utilized as a viral surrogate because of its size, morphology, environmental stability, and non-human infectivity, and the ability for use in high throughput assays. Phi X174 has been previously been used to study barrier efficacy, making it an ideal surrogate to study attachment to a surface (See, Haman and Nelson, Am J Infect Control, 1993, 21:289-96, O'Connell, et al, Clin Microb Infect, 2004, 10:322-6, ASTM F1671/F1671M-13, Standard Test Method for Resistance of Materials Used in Protective Clothing to Penetration by Blood-Borne Pathogens Using Phi X174 Bacteriophage Penetration as a Test System). Thus, it is well accepted by those of ordinary skill in the art that Phi X 174 serves as a surrogate for other DNA viruses, and the compositions including the adherent agents noted above would act in a substantially similar behavior to other DNA viruses as they did against Phi X 174.
as §2, §3

[4] = test system: S. aureus ATCC 6538; test: High Throughput Attachment Test Method (bacterial attachment to MBEC pegs), S. aureus; format: cell-based, Staphylococcus aureus; settings: pegs coated with compound in 5% glycerin and QS water; Con. Wt. %: #1,4,5,6 = 5; #2,3 = 2; #7,8,9 = 100; 15 min bacterial challenge
Procedure: as §4, §5, §6, §7, §8, §9, §10, §11, §12

| SMILES | MS2 Percent Reduct. (%) [1] [%] | MS2 Log R (PFU/mL) compared to growth controls [1] [PFU/mL] | Effect against RNA viruses (MS2), in words [1] | Ratio of E. coli growth on treated pegs to untreated pegs (%) [2] [%] | Phi X 174 Percent Reduct. (%) [3] [%] | Phi X 174 Log. R (PFU/mL) compared to growth controls [3] [PFU/mL] | Effect against DNA viruses (Phi X 174), in words [3] | Ratio of S. aureus growth on treated pegs to untreated pegs (%) [4] [%] |
| --- | --- | --- | --- | --- | --- | --- | --- | --- |
| CCCCCCCCCCCCCCCCCC(=O)OCC(CC)CCCC (stereo not shown) [Compound 7, Ethylhexyl Stearate] | 87.46 | 0.90 | anti-adherent | 48.4 | 98.58 | 1.85 | anti-adherent | 68.6 |
| CCCCC(CC)COC(=O)c1ccccc1O (stereo not shown) [Compound 8, Ethylhexyl Salicylate] | 85.40 | 0.84 | – | 111.1 | 91.45 | 1.07 | – | 75.4 |
| CCCCC(CC)COC(=O)C(C#N)=C(c1ccccc1)c1ccccc1 (stereo not shown) [Compound 9, Octocrylene] | −30.27 | −0.11 | neutral | 114.1 | 93.44 | 1.18 | anti-adherent | 81.9 |
